“Also recorded” adds a separate entry of the source. Read-outs that look alike come from different tables or passages of the source. Values belong to the compound of their own block, whether it stands above or below them.
How the values were obtained:
phthalyl amidase [1] = biological target: T1, phthalyl amidase (Xanthobacter agilis, UniProt P0C2Y0); assay: Influence of effectors and organic solvents on enzyme activity; type: biochemical; settings: for remaining activity at 1 % / remaining activity at 5 % / remaining activity at 10 %: 20 min, read-out: % Residual enzyme activity
T1 construct: 42-aa signal peptide removed
T1 sequence (P0C2Y0 2-453): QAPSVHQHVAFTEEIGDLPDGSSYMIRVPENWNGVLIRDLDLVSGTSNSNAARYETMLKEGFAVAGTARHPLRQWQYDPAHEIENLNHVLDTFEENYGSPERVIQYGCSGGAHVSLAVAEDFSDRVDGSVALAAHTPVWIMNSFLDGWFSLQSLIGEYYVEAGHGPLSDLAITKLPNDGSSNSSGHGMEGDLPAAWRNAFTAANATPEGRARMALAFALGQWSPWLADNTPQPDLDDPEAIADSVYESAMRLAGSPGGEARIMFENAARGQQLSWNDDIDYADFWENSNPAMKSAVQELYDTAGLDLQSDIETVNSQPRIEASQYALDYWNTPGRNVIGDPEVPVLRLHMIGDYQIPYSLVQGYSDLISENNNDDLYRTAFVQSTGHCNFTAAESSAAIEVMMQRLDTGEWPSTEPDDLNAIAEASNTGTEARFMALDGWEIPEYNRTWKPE
Procedure: A typical reaction mixture consisted of 1 ml total volume and contained 0.1 mM III, 0.1 μM phthalyl amidase in 50 mM potassium phosphate buffer (pH 5.5-9.0) at 32° C. for 20 minutes. The reactions were stopped by the addition of 1 ml methanol. After removal of precipitate by centrifugation, an aliquot of the supernatant fraction (typically 30 μ) was monitored for the beta-lactam nucleus and phthalic acid by HPLC using a Zorbax C8 column (0.46×15 cm; MacMod Analytical Inc., Chadds Ford, Pa.). The two reaction products were eluted by a mobile phase constructed as continuous mixed gradients from (a) 1% ACN (acetonitrile)/0.2% TFA (trifluoroacetic acid) and (b) 80% ACN/0.2% TFA as follows: 1) 0% (b), 3 min; 2) 0-50% (b), 0.5 min; 3) 50-100% (b), 3 min; 4) 100% (b), 2.5 min; 5) 100-0% (b), 0.1 min; and 6) 0% (b), 5 min.
The effect of various agents on the enzymatic activity of phthalyl amidase was determined using standard conditions (see Example 5). All agents were tested at 1 mM final concentration unless otherwise indicated.

phthalyl amidase [2] = biological target: T1, phthalyl amidase; assay: Substrate specificity: chemical structure requirements for enzyme activity; type: biochemical; settings: for Relative Activity: 2.5 μmol compound, 0.3 units enzyme; for suitability as substrate (in words): Tables 10 and 11
Procedure: The activity of phthalyl amidase against 25 compounds was determined. The compounds were divided into beta-lactams (Table 9), phthalyl amides (Table 10), and aromatic ring substituted amides (Table 11). Each reaction mixture (1 ml total volume) contained 2.5 μmol of compound and 0.3 units of enzyme (based on the chromogenic substrate) of the preparative scale purified enzyme, in 50 mM phosphate buffer, pH 8.0. The reactions were conducted at 30° C. Samples of the reaction mixture were taken at various times, and methanol (equal volume) was added to stop the reaction. The samples were examined by HPLC to determine the extent of substrate hydrolysis. The amount of compound hydrolyzed was calculated from a standard curve of the test compound. All substrates were stable in buffer at 30° C. and pH 8.0 in the absence of enzyme for 24 hours.

Xanthobacter agilis = assay: Induction of phthalyl amidase in Xanthobacter agilis cultures; type: cell-based; settings: for Total units/mg protein: cell-free lysate, chromogenic substrate II; for Cell weight: 48 hours growth in Bac MI medium
Procedure: Three compounds at different concentrations were added to aerated cultures of the organism growing at 30° C. in Bac MI medium. The compounds tested were phthalate (PAA), phthalyl glycine (PAG), and PMBL. Cells of Xanthobacter agilis were grown with aeration for 24 hours. This vegetative culture was used to inoculate Bac MI medium (50 ml) containing different concentrations of the compounds to be tested. After 48 hours growth under standard conditions, cells were harvested by centrifugation and wet weight of the cells was determined. Crude cell extracts were prepared by lysozyme treatment of the cells as in Example 1. Suspensions were briefly sonicated to break up the viscous suspension. A cell-free supernatant was obtained by centrifugation of the suspension at 14,000 rpm for 15 minutes.
Enzyme activity in cell-free lysates was determined by monitoring conversion of the chromogenic substrate 4-(2'-carboxy-N-benzoyl)amino-2-carboxy-nitrobenzene (II) to 2-nitro-5-amino benzoic acid and phthalic acid, a reaction catalyzed by phthalyl amidase as shown below: [drawing 4]
The assay reaction mixture (1 ml) consisted of 0.3 μmol of the chromogenic substrate (II) and 0.001-0.5 μg of enzyme preparation in 50 mM potassium phosphate buffer, pH 8.0 (buffer A). The enzymatic reaction was conducted at 30° C. for 10 minutes and the appearance of product was monitored at 380 nm (or 430 nm). The amount of substrate hydrolyzed was calculated from a standard curve of the amine product.

[3] = agent at 1 mM final concentration
[4] = Table 11 aromatic ring substituted amides, XVII = 100.0, pH 8.0, 30° C.
[5] = 1 mM unless otherwise indicated, iodoacetic acid 10 mM
[6] = agent at 1 mM final concentration, read-out: % of Control Activity
[7] = Table 9 beta-lactams, III = 100, 50 mM phosphate pH 8.0, 30° C.
[8] = read-out: % of Control Activity

Relative Activity (phthalyl amidase [2]; [4]): 1.3
suitability as substrate (in words) (phthalyl amidase [2]): acceptable
Compound: CCCCCCC(C(=O)O)n1cnc(NC(=O)c2cccc(O)c2C(=O)O)c1 (centres unmarked) [XXI]

suitability as substrate (in words) (phthalyl amidase [2]): acceptable
Compound: CCCCCCC(C(=O)O)n1cnc(NC(=O)c2ncccc2C(=O)O)c1 (centres unmarked) [Compound XX]

Relative Activity (phthalyl amidase [2]; [7]): 0
Compound: O=C(O)CN1C(=O)C(NC(=O)Cc2ccccc2)C1CCc1ccco1 (centres unmarked) [V]

remaining activity at 1000 µM (phthalyl amidase [1]; [6]): 96%
Compound: NC(=O)C1=CN([C@@H]2O[C@H](COP(=O)(O)OP(=O)(O)OC[C@H]3O[C@@H](n4cnc5c(N)ncnc54)[C@H](O)[C@@H]3O)[C@@H](O)[C@H]2O)C=CC1 [NADH]

Relative Activity (phthalyl amidase [2]; [4]): 0
Compound: CCCCCCC(C(=O)O)n1cnc(NC(=O)c2ccccc2O)c1 (centres unmarked) [XXV]

effect on enzyme activity (in words) (phthalyl amidase [1]; [5]): little or no effect
remaining activity at 1000 µM (phthalyl amidase [1]; [6]): 104%
Compound: c1cnc2c(c1)ccc1cccnc12 [Phenanthroline]

remaining activity at 1 % (phthalyl amidase [1]; solvent 1.0%): 100%
remaining activity at 5 % (phthalyl amidase [1]; solvent 5.0%): 94%
remaining activity at 10 % (phthalyl amidase [1]; solvent 10.0%): 85%
% Residual enzyme activity (phthalyl amidase [1]; solvent 10.0%): least amount of inhibition
Compound: OCC(O)CO [Glycerol]

Relative Activity (phthalyl amidase [2]; [4]): 0.2
suitability as substrate (in words) (phthalyl amidase [2]): Low levels of hydrolysis
Compound: CCCCCCC(C(=O)O)n1cnc(NC(=O)c2ccccc2-c2nn[nH]n2)c1 (centres unmarked) [XXII]

remaining activity at 1000 µM (phthalyl amidase [1]; [6]): 106%
Compound: Cc1ncc(COP(=O)(O)O)c(C=O)c1O [PLP, pyridoxyl5-phosphate]

Relative Activity (phthalyl amidase [2]; [4]): 0
Compound: CCCCCCC(C(=O)O)n1cnc(NC(=O)c2cccc(C(=O)O)c2)c1 (centres unmarked) [XXIV]
suitability as substrate (in words) (phthalyl amidase [2]): completely eliminates hydrolytic activity

remaining activity at 1000 µM (phthalyl amidase [1]; [6]): 100%
Compound: O[C@H](CS)[C@H](O)CS (racemic) [DTT, dithiothreitol]

remaining activity at 1000 µM (phthalyl amidase [1]; [6]): 105%
Compound: OCCS [Mercaptoethanol]

Relative Activity (phthalyl amidase [2]; [4]): 100.0
Compound: CCCCCCC(C(=O)O)n1cnc(NC(=O)c2ccccc2C(=O)O)c1 (centres unmarked) [XVII]

Relative Activity (phthalyl amidase [2]; [4]): 0
Compound: CCCCCCC(C(=O)O)n1cnc(NC(=O)c2cc(O)cc(O)c2)c1 (centres unmarked) [XXVII]

Relative Activity (phthalyl amidase [2]; [7]): 0
Compound: O=C(O)CN1C(=O)C(NC(=O)COc2ccccc2)C1CCc1ccco1 (centres unmarked) [IV]

Relative Activity (phthalyl amidase [2]; [4]): 0
Compound: CCCCCCC(C(=O)O)n1cnc(NC(=O)c2ccccc2)c1 (centres unmarked) [XXVIII]

remaining activity at 1000 µM (phthalyl amidase [1]; [6]): 99%
Compound: NC(=O)C1=CN([C@@H]2O[C@H](COP(=O)(O)OP(=O)(O)OC[C@H]3O[C@@H](n4cnc5c(N)ncnc54)[C@H](OP(=O)(O)O)[C@@H]3O)[C@@H](O)[C@H]2O)C=CC1 [NADPH]

Relative Activity (phthalyl amidase [2]; [7]): 0
Compound: O=C(O)CN1C(=O)C(NC(=O)c2ccccc2)C1CCc1ccco1 (centres unmarked) [VI]

Relative Activity (phthalyl amidase [2]; [4]): 0
Compound: CCCCCCC(C(=O)O)n1cnc(NC(=O)c2ccc(C(=O)O)cc2)c1 (centres unmarked) [XXIII]
suitability as substrate (in words) (phthalyl amidase [2]): completely eliminates hydrolytic activity

suitability as substrate (in words) (phthalyl amidase [2]): most active compound found
Compound: CCCCCCC(C(=O)O)n1cnc(NC(=O)c2ccccc2C(=O)O)c1 (centres unmarked) [XIII]

Relative Activity (phthalyl amidase [2]; [4]): 0
Compound: CCCCCCC(C(=O)O)n1cnc(NC(=O)c2cccc(O)c2)c1 (centres unmarked) [XXVI]

remaining activity at 1000 µM (phthalyl amidase [1]; [6]): 102%
Compound: CC(C)(COP(=O)(O)OP(=O)(O)OC[C@H]1O[C@@H](n2cnc3c(N)ncnc32)[C@H](O)[C@@H]1OP(=O)(O)O)[C@@H](O)C(=O)NCCC(=O)NCCS [CoASH]

Relative Activity (phthalyl amidase [2]; Table 10 phthalyl amides, III = 100.0, 50 mM phosphate pH 8.0, 30° C.): 9.7
Compound: CC(C)NC(=O)c1ccccc1C(=O)O [XII]

remaining activity at 1000 µM (phthalyl amidase [1]; [6]): 100%
Compound: Nc1nc2c(c(=O)[nH]1)N[C@H](CNc1ccc(C(=O)N[C@@H](CCC(=O)O)C(=O)O)cc1)CN2 [THF, tetrahydrofolate]

The remaining lines, values behind:

Compound: [Cl][Ni][Cl] [NiCl2]
% of Control Activity (phthalyl amidase [1]; [3]): 94%

Compound: O=C(O)c1cc[c]([Hg][OH])cc1 [p-HMB, parahydroxy mercuric benzoate]
effect on enzyme activity (in words) (phthalyl amidase [1]; [5]): significantly reduced; also recorded: significantly inhibited
% of Control Activity (phthalyl amidase [1]; [3]): 65%

Compound: Nc1ncnc2c1ncn2[C@@H]1O[C@H](COP(=O)(O)OP(=O)(O)OP(=O)(O)O)[C@@H](O)[C@H]1O [ATP, adenosine 5triphosphate]
remaining activity at 1000 µM (phthalyl amidase [1]; [6]): 96%

Compound: O=C(O)CN1C(=O)C(NC(=O)c2ccccc2C(=O)O)C1CCc1ccco1 (centres unmarked) [PMBL]
effect on wet weight cell mass (in words) (Xanthobacter agilis; Table 1 summary): no effect

Compound: NC(=O)c1ccc[n+]([C@@H]2O[C@H](COP(=O)([O-])OP(=O)(O)OC[C@H]3O[C@@H](n4cnc5c(N)ncnc54)[C@H](OP(=O)(O)O)[C@@H]3O)[C@@H](O)[C@H]2O)c1 [NADP, nicotinamide adenine dinucleotide phosphate]
remaining activity at 1000 µM (phthalyl amidase [1]; [6]): 99%

Compound: O=C(O)CI [Iodoacetate]
effect on enzyme activity (in words) (phthalyl amidase [1]): significantly reduced; also recorded: significantly inhibited
remaining activity at 1000 µM (phthalyl amidase [1]; [8]): 91%
remaining activity at 10000 µM (phthalyl amidase [1]; [8]): 46%

Compound: CO [Methanol]
remaining activity at 1 % (phthalyl amidase [1]; solvent 1.0%): 100%
remaining activity at 5 % (phthalyl amidase [1]; solvent 5.0%): 90%
remaining activity at 10 % (phthalyl amidase [1]; solvent 10.0%): 69%

Compound: C[S+](C)[O-] [DMSO, dimethyl sulfoxide]
remaining activity at 1 % (phthalyl amidase [1]; solvent 1.0%): 101%
remaining activity at 5 % (phthalyl amidase [1]; solvent 5.0%): 80%
remaining activity at 10 % (phthalyl amidase [1]; solvent 10.0%): 71%

Compound: [Cl-].[K+] [KCl]
% of Control Activity (phthalyl amidase [1]; [3]): 100%

Compound: O=C(O)c1ccccc1C(=O)O [PAA, phthalate]
Units/g cells (Xanthobacter agilis; inducer addition 1 mg/ml): 3.9 Units/g cells
Total units/mg protein (Xanthobacter agilis; inducer addition 1 mg/ml): 1.4 µmol/min/mg
Units/g cells (Xanthobacter agilis; inducer addition 2 mg/ml): 9.3 Units/g cells
Total units/mg protein (Xanthobacter agilis; inducer addition 2 mg/ml): 4.3 µmol/min/mg
Units/g cells (Xanthobacter agilis; inducer addition 5 mg/ml): 5.5 Units/g cells
Cell weight (Xanthobacter agilis; inducer addition 5 mg/ml): 0.7 g/50 ml
Total units/mg protein (Xanthobacter agilis; inducer addition 5 mg/ml): 3.7 µmol/min/mg
Units/g cells (Xanthobacter agilis; inducer addition 10 mg/ml): 19.8 Units/g cells
Cell weight (Xanthobacter agilis; inducer addition 10 mg/ml): 0.6 g/50 ml
Total units/mg protein (Xanthobacter agilis; inducer addition 10 mg/ml): 12.0 µmol/min/mg

Compound: CCO [Ethanol]
remaining activity at 1 % (phthalyl amidase [1]): 99%
remaining activity at 5 % (phthalyl amidase [1]): 85%
remaining activity at 10 % (phthalyl amidase [1]): 45%

Compound: O=C(O)CN(CCN(CC(=O)O)CC(=O)O)CC(=O)O [EDTA]
effect on enzyme activity (in words) (phthalyl amidase [1]): little or no effect
remaining activity at 1000 µM (phthalyl amidase [1]; [8]): 103%

Compound: [Ca+2].[Cl-].[Cl-] [CaCl2]
% of Control Activity (phthalyl amidase [1]; [3]): 89%

Compound: [Cl][Cu][Cl] [CuCl2]
effect on enzyme activity (in words) (phthalyl amidase [1]; 1 mM unless otherwise indicated, iodoacetic acid 10 mM, listed as Cu^++): significantly inhibited
effect on enzyme activity (in words) (phthalyl amidase [1]; 1 mM unless otherwise indicated, iodoacetic acid 10 mM, listed as copper ions): significantly reduced
% of Control Activity (phthalyl amidase [1]; [3]): 36%

Compound: [Cl][Fe]([Cl])[Cl] [FeCl3]
% of Control Activity (phthalyl amidase [1]; [3]): 96%

Compound: [Cl][Mn][Cl] [MnCl2]
% of Control Activity (phthalyl amidase [1]; [3]): 84%

Compound: [Cl-].[Cl-].[Zn+2] [ZnCl2]
% of Control Activity (phthalyl amidase [1]; [3]): 100%

Compound: NC(=O)c1ccc[n+]([C@@H]2O[C@H](COP(=O)([O-])OP(=O)(O)OC[C@H]3O[C@@H](n4cnc5c(N)ncnc54)[C@H](O)[C@@H]3O)[C@@H](O)[C@H]2O)c1 [NAD, nicotinamide adenine nucleotide]
remaining activity at 1000 µM (phthalyl amidase [1]; [6]): 101%

Compound: Cc1cc2nc3c(=O)[nH]c(=O)nc-3n(C[C@H](O)[C@H](O)[C@H](O)COP(=O)(O)OP(=O)(O)OC[C@H]3O[C@@H](n4cnc5c(N)ncnc54)[C@H](O)[C@@H]3O)c2cc1C [FAD, flavin adenine dinucleotide]
remaining activity at 1000 µM (phthalyl amidase [1]; [6]): 101%

Compound: O=C(O)c1cc(SSc2ccc([N+](=O)[O-])c(C(=O)O)c2)ccc1[N+](=O)[O-] [DTNB, dithionitrobenzoate]
remaining activity at 1000 µM (phthalyl amidase [1]; [6]): 98%

Compound: CCN1C(=O)C=CC1=O [NEM, Nethylmaleimide]
remaining activity at 1000 µM (phthalyl amidase [1]; [6]): 100%
